Data as given in patent US9061352B2, “Dry powder formulations and methods for treating pulmonary diseases” (priority 2010, dated 2015).

Tests used:
Type in all cases: physicochemical
[1] = Emitted geometric particle size from dry powder inhaler by Spraytec (Dv50, GSD, FPF<5 μm); details: for average Dv50: 9.2 Joules; for Dv50: measured lower energies
Description: (§1) Volume median diameter can also be measured using a method where the powder is emitted from a dry powder inhaler device. The equipment consisted of a Spraytec laser diffraction particle size system (Malvern, Worcestershire, UK), “Spraytec”. Powder formulations were filled into size 3 HPMC capsules (Capsugel V-Caps) by hand with the fill weight measured gravimetrically using an analytical balance (Mettler Tolerdo XS205). A capsule based passive dry powder inhalers (RS-01 Model 7, High resistance Plastiape S.p.A.) was used which had specific resistance of 0.036 kPa^1/2 LPM^−1. Flow rate and inhaled volume were set using a timer controlled solenoid valve with flow control valve (TPK2000, Copley Scientific). Capsules were placed in the dry powder inhaler, punctured and the inhaler sealed to the inlet of the laser diffraction particle sizer. The steady air flow rate through the system was initiated using the TPK2000 and the particle size distribution was measured via the Spraytec at 1 kHz for at least 2 seconds and up to the total inhalation duration. Particle size distribution parameters calculated included the volume median diameter (Dv50) and the geometric standard deviation (GSD) and the fine particle fraction (FPF) of particles less than 5 micrometers in diameter. At the completion of the inhalation duration, the dry powder inhaler was opened, the capsule removed and re-weighed to calculate the mass of powder that had been emitted from the capsule during the inhalation duration (capsule emitted powder mass or CEPM).
The previous description of the use of the Spraytec was for what is described as its “closed bench configuration”. Alternatively, the Spraytec can be used in its “open bench configuration”. In the open bench configuration, capsules were placed in the dry powder inhaler, punctured and the inhaler sealed inside a cylinder. The cylinder was connected to a positive pressure air source with steady air flow through the system again measured with a mass flow meter and its duration controlled with a timer controlled solenoid valve. The exit of the dry powder inhaler was exposed to room pressure and the resulting aerosol jet passed through the laser of the diffraction particle sizer (Spraytec) in its open bench configuration before being captured by a vacuum extractor. The steady air flow rate through the system was initiated using the solenoid valve and the particle size distribution was measured via the Spraytec at 1 kHz for the duration of the single inhalation maneuver with a minimum of 2 seconds, as in the closed bench configuration. When data are reported in the examples as being measured by the Spraytec, they are from the closed bench configuration unless otherwise noted.
The volume median diameter (Dv50) of the powder after it emitted from a dry powder inhaler, which may also be referred to as volume median geometric diameter (VMGD), was determined using a laser diffraction technique via the Spraytec diffractometer (Malvern, Inc., Worcestershire, UK). Powder was filled into size 3 capsules (V-Caps, Capsugel) and placed in a capsule based dry powder inhaler (RS01 Model 7 High resistance, Plastiape, Italy), or DPI, which was connected with an airtight seal to the inhaler adapter of the Spraytec. A steady airflow rate was drawn through the DPI typically at 60 L/min for a set duration, typically of 2 seconds controlled by a timer controlled solenoid (TPK2000, Copley, Scientific, UK). Alternatively, the airflow rate drawn through the DPI was sometimes run at 15 L/min, 20 L/min, or 30 L/min. The outlet aerosol then passed perpendicularly through the laser beam as an internal flow. The resulting geometric particle size distribution of the aerosol was calculated from the software based on the measured scatter pattern on the photodetectors with samples typically taken at 1000 Hz for the duration of the inhalation. The Dv50, GSD, FPF<5.0 μm measured were then averaged over the duration of the inhalation. […]

[2] = Capsule emitted powder mass (CEPM) from dry powder inhaler; details: for average CEPM, % of capsule fill weight: 9.2 Joules (60 L/min for 2 L), high resistance RS-01
Description: as §1
A measure of the emission properties of the powders was determined by using the information obtained from the Andersen Cascade Impactor tests. The filled capsule weight was recorded at the beginning of the run and the final capsule weight was recorded after the completion of the run. The difference in weight represented the amount of powder emitted from the capsule (CEPM or capsule emitted powder mass). The emitted dose was calculated by dividing the amount of powder emitted from the capsule by the total initial particle mass in the capsule. While the standard CEPM was measured at 60 L/min, it was also measured at 15 L/min, 20 L/min, or 30 L/min.
Powder formulations were filled into size 3 HPMC capsules (Capsugel V-Caps) by hand with the fill weight measured gravimetrically using an analytical balance (Mettler Tolerdo XS205). […] Two capsule based passive dry powder inhalers (RS-01 Model 7, Low resistance Plastiape S.p.A. and RS-01 Model 7, High resistance Plastiape S.p.A.) were used which had specific resistances of 0.020 and 0.036 kPa1/2/LPM which span the typical range of dry powder inhaler resistance. Flow rate and inhaled volume were set using a timer controlled solenoid valve with flow control valve (TPK2000, Copley Scientific). Capsules were placed in the appropriate dry powder inhaler, punctured and the inhaler sealed to the inlet of the laser diffraction particle sizer (Spraytec, Malvern). The steady air flow rate through the system was initiated using the TPK2000 and the particle size distribution was measured via the Spraytec at 1 kHz for the durations at least 2 seconds and up to the total inhalation duration. Particle size distribution parameters calculated included the volume median diameter (Dv50) and the geometric standard deviation (GSD) and the fine particle fraction (FPF) of particles less than 5 micrometers in diameter. At the completion of the inhalation duration, the dry powder inhaler was opened, the capsule removed and re-weighed to calculate the mass of powder that had been emitted from the capsule during the inhalation duration. At each testing condition, 5 replicate capsules were measured and the results of Dv50, FPF and capsule emitted powder mass (CEPM) were averaged. […]

[3] = Heat of solution in HBSS buffer; details: for ΔH (kJ/mol), Average / ΔH (kcal/mol), Average / heat of solution ΔH: HBSS buffer; for ΔH (kJ/mol), Average / ΔH (kcal/mol), Average: per mol Ca for all powders except leucine (mol Leu); for ΔH (kJ/mol), Average / ΔH (kcal/mol), Average / Q (cal), Average / ΔT (deg. C.), Average: experiment #1; for Q (cal), Average / ΔT (deg. C.), Average: dissolution in HBSS buffer
[4] = Fine particle fraction by two-stage collapsed Andersen Cascade Impactor (ACI-2); details: spray dried from 70% ethanol, 50 g/L
[5] = Volume median diameter (x50) and dispersibility ratios by HELOS/RODOS laser diffraction
Protocol: Volume median diameter (×50 or Dv50), which may also be referred to as volume median geometric diameter (VMGD), was determined using a laser diffraction technique. The equipment consisted of a HELOS diffractometer and a RODOS dry powder disperser (Sympatec, Inc., Princeton, N.J.). The RODOS disperser applies a shear force to a sample of particles, controlled by the regulator pressure (typically set at 1.0 bar) of the incoming compressed dry air. The pressure settings may be varied to vary the amount of energy used to disperse the powder. For example, the regulator pressure may be varied from 0.2 bar to 4.0 bar; and the orifice ring pressure may be varied from 5.00 mbar to 115.00 mbar. Powder sample is dispensed from a microspatula into the RODOS funnel. The dispersed particles travel through a laser beam where the resulting diffracted light pattern produced is collected, typically using an R1 lens, by a series of detectors. The ensemble diffraction pattern is then translated into a volume-based particle size distribution using the Fraunhofer diffraction model, on the basis that smaller particles diffract light at larger angles. Using this method geometric standard deviation (GSD) for the volume mean geometric diameter was also determined.

[6] = RS.01.HR, fill 25 mg, 15 LPM, 4 s, 0.29 J
[7] = RS.01.HR, fill 25 mg, 20 LPM, 3 s, 0.51 J
[8] = RS.01.HR, fill 25 mg, 30 LPM, 2 s, 1.15 J
[9] = RS.01.HR, fill 25 mg, 60 LPM, 2 s, 9.18 J
[10] = RS.01.HR, fill 40 mg, 15 LPM, 4 s, 0.29 J
[11] = RS.01.HR, fill 40 mg, 20 LPM, 3 s, 0.51 J
[12] = RS.01.HR, fill 40 mg, 30 LPM, 2 s, 1.15 J
[13] = RS.01.HR, fill 40 mg, 60 LPM, 2 s, 9.18 J
[14] = RS.01.LR, fill 25 mg, 60 LPM, 2 s, 2.85 J
[15] = RS.01.LR, fill 40 mg, 60 LPM, 2 s, 2.85 J
[16] = all measured energies below 9.2 Joules, 25 and 40 mg fill

## albuterol sulfate [Micronized Albuterol]
[1]; 25 mg fill
  average Dv50: 1.8 μm
  Dv50: 3.9 μm
[1]; 40 mg fill
  average Dv50: 1.6 μm
  Dv50: 3.1 μm
[1]; [6]
  Mean Dv(50) (μm): 16.76 μm
  Mean FPF, % <5 μm: 13.00%
[1]; [7]
  Mean Dv(50) (μm): 8.40 μm
  Mean FPF, % <5 μm: 32.10%
[1]; [8]
  Mean Dv(50) (μm): 3.86 μm
  Mean FPF, % <5 μm: 59.44%
[1]; [9]
  Mean Dv(50) (μm): 1.77 μm
  Mean FPF, % <5 μm: 81.65%
[1]; [10]
  Mean Dv(50) (μm): 17.63 μm
  Mean FPF, % <5 μm: 10.73%
[1]; [11]
  Mean Dv(50) (μm): 6.34 μm
  Mean FPF, % <5 μm: 42.24%
[1]; [12]
  Mean Dv(50) (μm): 3.13 μm
  Mean FPF, % <5 μm: 67.18%
[1]; [13]
  Mean Dv(50) (μm): 1.60 μm
  Mean FPF, % <5 μm: 84.30%
[1]; [14]
  Mean Dv(50) (μm): 2.57 μm
  Mean FPF, % <5 μm: 75.01%
[1]; [15]
  Mean Dv(50) (μm): 2.62 μm
  Mean FPF, % <5 μm: 73.98%
[2]; 25 mg fill
  average CEPM, % of capsule fill weight: 93%
[2]; 40 mg fill
  average CEPM, % of capsule fill weight: 84%
[2]; [6]
  Mean CEPM: 3.12 mg
[2]; [7]
  Mean CEPM: 5.00 mg
[2]; [8]
  Mean CEPM: 7.08 mg
[2]; [9]
  Mean CEPM: 23.18 mg
[2]; [10]
  Mean CEPM: 2.43 mg
[2]; [11]
  Mean CEPM: 4.97 mg
[2]; [12]
  Mean CEPM: 8.55 mg
[2]; [13]
  Mean CEPM: 33.40 mg
[2]; [14]
  Mean CEPM: 15.28 mg
[2]; [15]
  Mean CEPM: 18.88 mg
[2]; [16]
  CEPM: below 10 mg
  CEPM, % of capsule fill weight: < 30%

## O.O.[Ca+2].[Cl-].[Cl-] [CaCl2•2H2O]
[3]
  ΔH (kJ/mol), Average: -50.5 kJ/mol
  ΔH (kcal/mol), Average: -12.1 kcal/mol
  Q (cal), Average: 2.93 cal
  ΔT (deg. C.), Average: 0.024 deg. C.

## [Cl-].[Cl-].[Mg+2] [Pure magnesium chloride, magnesium chloride]
[4]
  fine particle fraction less than 5.6 microns: 19%
[5]; spray dried from 70% ethanol, 50 g/L
  median volume particle size: 4 microns
[5]; spray dried from D.I. water, 20 g/L
  median particle size: 21 microns

## O.O.[Ca+2].[Cl-].[Cl-] [raw calcium chloride dihydrate, calcium chloride dihydrate]
[3]; first experiment
  heat of solution ΔH: -12.1 kcal/mol
[3]; second experiment
  heat of solution ΔH: -8.4 kcal/mol

## CC(C)C[C@H](N)C(=O)O [Leucine]
[3]
  ΔH (kJ/mol), Average: -6 kJ/mol
  ΔH (kcal/mol), Average: -1.5 kcal/mol
  Q (cal), Average: 0.37 cal
  ΔT (deg. C.), Average: 0.003 deg. C.
